Test results: paper PMC8533299, “Synthesis, In Silico Study, and Anti-Cancer Activity of Thiosemicarbazone Derivatives” (Biomedicines, 2021)
Values after ≈ are worked out from the molar mass of the structure shown. Values joined by “and” are separate entries in the source; they are usually repeats but may differ in a detail not shown here. Identical values can stand only once.

Assays:
[1] = tested on: mouse Ehrlich Ascites Carcinoma (EAC); experiment: MTT test on EAC cells; format: cell-based; settings: for IC50: Mus musculus, Ehrlich, EAC cells, MTT, till 48 h
Method: (§1) The in vitro anticancer activities of the synthesized compounds were conducted using different cancerous and non-cancerous cell lines viz B16-F0 (Mouse melanoma), mouse Ehrlich Ascites Carcinoma (EAC), MCF-7 (Human breast cancer), MCF-10A (Human breast epithelial cells), and NIH/3T3 (Mouse fibroblast cells). All cell lines were procured from the National Centre for Cell Science, Pune, India. The procured cells were cultured in a six-well culture plate with Dulbecco’s Modified Eagle’s Medium (DMEM) supplemented with 10% fetal bovine serum in a humid CO2 incubator with 5% carbon dioxide at 37 °C.
(§2) The anti-cancer effect and cytotoxicity of both 3-MBTSc and 4-NBTSc compounds were evaluated against different cancerous (MCF-7, EAC, B16-F0 cells) and noncancerous cells (MCF-10A, NIH-3T3 cells) using MTT test. In brief, the stock solutions of both the tested compounds were prepared by dissolving 1 mg of each compound in 1 mL of DMSO separately. Then, four different concentrations (5, 10, 12, and 20 µg/mL) of both compounds were used during the test along with the negative control. Also, 10 μg/mL of doxorubicin (Dox) was used as the positive control during the experiment. Both untreated and treated cells were incubated for next 24 and 48 h. Then, all the steps during the whole experiment were carried out by our earlier reported procedure. Later, the absorbance values were measured by an ELISA reader (Biorad, Hercules, CA, USA) at 570 nm wavelength using secondary wavelength as a reference at 620 nm and the percentages of cell viability was calculated using the following formula [59, 60, 61]. Cell viability (%)= Mean absorbance of treated cells/Mean absorbance of untreated cells × 100
(§3) Based on the cell viability data, the IC50 values of both compounds were calculated on different cancer cells by plotting their corresponding dose-responsive graphs.
(§4) The obtained data were statistically analyzed. The descriptive analysis was done and the IC50 values were calculated by fitting the sigmoidal dose responsive graph using GraphPad Prism (GraphPad Software, Inc., La Jolla, CA, USA). […]

[2] = tested on: MCF-7 (Human breast cancer); experiment: MTT test on MCF-7 cells; format: cell-based; settings: MCF7, till 48 h
Method: as §1, §2, §3, §4

[3] = tested on: gene expression in B16-F0 melanoma cells; experiment: RT-qPCR gene expression in B16-F0 cells; format: cell-based, Mouse; settings: for BCl2 Treated (RQ value) / BRCA1 Treated (RQ value) / Bax Treated (RQ value) / Caspase-3 Treated (RQ value) / Dmp1 Treated (RQ value) / Fos Treated (RQ value) / MTS 1 Treated (RQ value) / Mdm2 Treated (RQ value) / PKC Treated (RQ value) / PTEN Treated (RQ value) / RAS Treated (RQ value) / p19 Arf Treated (RQ value) / p21 Treated (RQ value) / p53 Treated (RQ value) / pRB Treated (RQ value): B16-F0 cells treated, GAPDH housekeeping gene; for BCl2 Fold Change (B16-F0 treated-B16-F0 untreated) / BRCA1 Fold Change (B16-F0 treated-B16-F0 untreated) / Bax Fold Change (B16-F0 treated-B16-F0 untreated) / Caspase-3 Fold Change (B16-F0 treated-B16-F0 untreated) / Dmp1 Fold Change (B16-F0 treated-B16-F0 untreated) / MTS 1 Fold Change (B16-F0 treated-B16-F0 untreated) / Mdm2 Fold Change (B16-F0 treated-B16-F0 untreated) / PTEN Fold Change (B16-F0 treated-B16-F0 untreated) / p19 Arf Fold Change (B16-F0 treated-B16-F0 untreated) / p21 Fold Change (B16-F0 treated-B16-F0 untreated) / p53 Fold Change (B16-F0 treated-B16-F0 untreated) / pRB Fold Change (B16-F0 treated-B16-F0 untreated): B16-F0 cells, difference of RQ values
Method: (§5) Total mRNA was isolated and extracted by Trizol reagent as described in an earlier method. RevertAid First Strand cDNA synthesis kit (Thermo Fisher Scientific, Waltham, MA, USA) was used to synthesize cDNA in a total reaction volume of 20 μL containing oligo-dT primers, RiboLock RNase inhibitor, and reverse transcriptase. Gene-specific primers were used to amplify cDNAs in RT-qPCR machine (Applied Biosystems, Waltham, MA, USA).

[4] = tested on: gene expression in EAC cells; experiment: RT-qPCR gene expression in EAC cells; format: cell-based, mouse
Method: as §5

[5] = EAC cells treated, GAPDH housekeeping gene
[6] = EAC cells, difference of RQ values

## NC(=S)N[N-][CH+]c1ccc([N+](=O)[O-])cc1 [4-NBTSc, 4-Nitrobenzaldehyde thiosemicarbazone]
[1]
  IC50: 3.832 ± 0.014 µg/mL (≈ 17.1 µM)
[2]
  IC50: 7.102 ± 0.01 µg/mL (≈ 31.7 µM)
[3]
  BCl2 Treated (RQ value): 2.36 ± 0.028
  BRCA1 Treated (RQ value): 1.94 ± 0.028
  Bax Treated (RQ value): 6.09 ± 0.028
  Caspase-3 Treated (RQ value): 5.215 ± 0.021
  Dmp1 Treated (RQ value): 7.19 ± 0.028
  Fos Treated (RQ value): 2.905 ± 0.021
  MTS 1 Treated (RQ value): 4.865 ± 0.021
  Mdm2 Treated (RQ value): 6.1 ± 0.014
  PKC Treated (RQ value): 7.14 ± 0.028
  PTEN Treated (RQ value): 6.97 ± 0.014
  RAS Treated (RQ value): 4.145 ± 0.035
  p19 Arf Treated (RQ value): 3.145 ± 0.035
  p21 Treated (RQ value): 4.12 ± 0.014
  p53 Treated (RQ value): 3.185 ± 0.021
  pRB Treated (RQ value): 1.06 ± 0.085
  BCl2 Fold Change (B16-F0 treated-B16-F0 untreated): 0.27 fold
  BRCA1 Fold Change (B16-F0 treated-B16-F0 untreated): 0.14 fold
  Bax Fold Change (B16-F0 treated-B16-F0 untreated): 3.355 fold and 3.35 fold
  Caspase-3 Fold Change (B16-F0 treated-B16-F0 untreated): 2.615 fold
  Dmp1 Fold Change (B16-F0 treated-B16-F0 untreated): 4.7 fold
  MTS 1 Fold Change (B16-F0 treated-B16-F0 untreated): 2.93 fold
  Mdm2 Fold Change (B16-F0 treated-B16-F0 untreated): -1.14 fold
  PTEN Fold Change (B16-F0 treated-B16-F0 untreated): 4.825 fold and 4.82 fold
  p19 Arf Fold Change (B16-F0 treated-B16-F0 untreated): 1.81 fold
  p21 Fold Change (B16-F0 treated-B16-F0 untreated): 1.93 fold
  p53 Fold Change (B16-F0 treated-B16-F0 untreated): 1.025 fold
  pRB Fold Change (B16-F0 treated-B16-F0 untreated): -0.54 fold
[4]; [5]
  BCl2 Treated (RQ value): 6.195 ± 0.021
  BRCA1 Treated (RQ value): 7.195 ± 0.021
  Bax Treated (RQ value): 2.945 ± 0.035
  Caspase-3 Treated (RQ value): 4.23 ± 0.028
  Dmp1 Treated (RQ value): 4.1 ± 0.014
  Fos Treated (RQ value): 3.095 ± 0.021
  MTS 1 Treated (RQ value): 1.945 ± 0.035
  Mdm2 Treated (RQ value): 4.955 ± 0.021
  PKC Treated (RQ value): 7.13 ± 0.028
  PTEN Treated (RQ value): 8.65 ± 0.028
  RAS Treated (RQ value): 3.13 ± 0.028
  p19 Arf Treated (RQ value): 4.605 ± 0.021
  p21 Treated (RQ value): 3.125 ± 0.035
  p53 Treated (RQ value): 3.165 ± 0.064
  pRB Treated (RQ value): 6.095 ± 0.035
[4]; [6]
  BCl2 Fold Change (EAC treated-EAC untreated): 3.105 fold
  BRCA1 Fold Change (EAC treated-EAC untreated): 5.135 fold and 5.13 fold
  Bax Fold Change (EAC treated-EAC untreated): -0.105 fold
  Caspase-3 Fold Change (EAC treated-EAC untreated): 1.33 fold
  Dmp1 Fold Change (EAC treated-EAC untreated): 1.95 fold
  MTS 1 Fold Change (EAC treated-EAC untreated): 0.04 fold
  Mdm2 Fold Change (EAC treated-EAC untreated): -0.25 fold
  PTEN Fold Change (EAC treated-EAC untreated): 7.42 fold
  p19 Arf Fold Change (EAC treated-EAC untreated): 1.855 fold
  p21 Fold Change (EAC treated-EAC untreated): 2.13 fold
  p53 Fold Change (EAC treated-EAC untreated): 2.105 fold
  pRB Fold Change (EAC treated-EAC untreated): 4.19 fold

## COc1cccc(C=NNC(N)=S)c1 [3-MBTSc, 3-Methoxybenzaldehyde thiosemicarbazone]
[1]; EAC cell line, MTT assay
  inhibition of cell growth: 50.31%
[1]
  IC50: 3.355 ± 0.012 µg/mL (≈ 16 µM)
[2]
  IC50: 2.821 ± 0.008 µg/mL (≈ 13.5 µM)
[3]
  BCl2 Treated (RQ value): 2.14 ± 0.028
  BRCA1 Treated (RQ value): 1.14 ± 0.028
  Bax Treated (RQ value): 3.095 ± 0.021
  Caspase-3 Treated (RQ value): 6.105 ± 0.021
  Dmp1 Treated (RQ value): 5.19 ± 0.028
  Fos Treated (RQ value): 3.135 ± 0.021
  MTS 1 Treated (RQ value): 6.14 ± 0.042
  Mdm2 Treated (RQ value): 5.105 ± 0.021
  PKC Treated (RQ value): 5.13 ± 0.028
  PTEN Treated (RQ value): 4.94 ± 0.028
  RAS Treated (RQ value): 4.16 ± 0.028
  p19 Arf Treated (RQ value): 5.125 ± 0.021
  p21 Treated (RQ value): 5.115 ± 0.021
  p53 Treated (RQ value): 5.185 ± 0.035
  pRB Treated (RQ value): 1.105 ± 0.007
  BCl2 Fold Change (B16-F0 treated-B16-F0 untreated): 0.050 fold
  BRCA1 Fold Change (B16-F0 treated-B16-F0 untreated): -0.660 fold
  Bax Fold Change (B16-F0 treated-B16-F0 untreated): 0.360 fold
  Caspase-3 Fold Change (B16-F0 treated-B16-F0 untreated): 3.505 fold and 3.50 fold
  Dmp1 Fold Change (B16-F0 treated-B16-F0 untreated): 2.700 fold
  MTS 1 Fold Change (B16-F0 treated-B16-F0 untreated): 4.205 fold
  Mdm2 Fold Change (B16-F0 treated-B16-F0 untreated): -2.135 fold
  PTEN Fold Change (B16-F0 treated-B16-F0 untreated): 2.795 fold
  p19 Arf Fold Change (B16-F0 treated-B16-F0 untreated): 3.790 fold
  p21 Fold Change (B16-F0 treated-B16-F0 untreated): 2.925 fold
  p53 Fold Change (B16-F0 treated-B16-F0 untreated): 3.025 fold
  pRB Fold Change (B16-F0 treated-B16-F0 untreated): -0.495 fold
[4]; [5]
  BCl2 Treated (RQ value): 7.195 ± 0.021
  BRCA1 Treated (RQ value): 4.305 ± 0.021
  Bax Treated (RQ value): 5.195 ± 0.021
  Caspase-3 Treated (RQ value): 3.095 ± 0.035
  Dmp1 Treated (RQ value): 6.9 ± 0.028
  Fos Treated (RQ value): 4.22 ± 0.014
  MTS 1 Treated (RQ value): 1.1 ± 0.028
  Mdm2 Treated (RQ value): 4.145 ± 0.035
  PKC Treated (RQ value): 7.105 ± 0.021
  PTEN Treated (RQ value): 4.205 ± 0.035
  RAS Treated (RQ value): 3.215 ± 0.021
  p19 Arf Treated (RQ value): 4.73 ± 0.028
  p21 Treated (RQ value): 5.19 ± 0.028
  pRB Treated (RQ value): 3.575 ± 0.021
[4]; [6]
  BCl2 Fold Change (EAC treated-EAC untreated): 4.105 fold
  BRCA1 Fold Change (EAC treated-EAC untreated): 2.245 fold
  Bax Fold Change (EAC treated-EAC untreated): 2.145 fold
  Caspase-3 Fold Change (EAC treated-EAC untreated): 0.195 fold
  Dmp1 Fold Change (EAC treated-EAC untreated): 4.75 fold
  Fos Fold Change (EAC treated-EAC untreated): -3.92 fold
  MTS 1 Fold Change (EAC treated-EAC untreated): -0.805 fold
  Mdm2 Fold Change (EAC treated-EAC untreated): -1.06 fold
  PKC Fold Change (EAC treated-EAC untreated): -3.03 fold
  PTEN Fold Change (EAC treated-EAC untreated): 2.975 fold
  RAS Fold Change (EAC treated-EAC untreated): -3.725 fold
  p19 Arf Fold Change (EAC treated-EAC untreated): 1.98 fold
  p21 Fold Change (EAC treated-EAC untreated): 4.195 fold
  p53 Fold Change (EAC treated-EAC untreated): 2.1 fold
  pRB Fold Change (EAC treated-EAC untreated): 1.67 fold
